Results taken from US10016382B2, “Method for decreasing skeletal muscle damage and/or oxidative stress in mammals” (LONZA INC., priority 2014, dated 2018).

Test: Body composition by GE Prodigy DEXA scan, Example 1
Format: in vivo, dog
Settings: for % Fat, Mean / BMC, Mean / Lean Mass, Mean / Total Mass, Mean: Table 14; for BMC-Change / Lean Mass-Change / Total Mass-Change / BMC-Final / BMC-Initial / Lean Mass-Final / Lean Mass-Initial / Total Mass-Final / Total Mass-Initial: Table 20, mean ± SEM; for BMC-Change / Lean Mass-Change / Total Mass-Change: beginning to completion of study
Procedure: Forty Labrador Retrievers were divided into two equal groups of twenty (11 males, 9 females) based on gender, body weight (“BW”), genetics, and lean mass and fed a low L-carnitine basal diet for a 90 day feeding period. The experimental dogs were fed the low L-carnitine basal for 10 days prior to the start of the study. Twenty of the Labs received 250 mg/day of L-carnitine (batch D22312) and 3.75 g of sugar and twenty of the Labs received 4 g/d of sugar. The dogs were scanned with a GE Prodigy DEXA system immediately prior to beginning of the study and the determined lean mass was utilized as a key component for helping assort the dogs equally between the control and L-carnitine group. A serum sample was obtained from each dog to determine a baseline value for blood biomarkers that were used to evaluate muscle damage and antioxidant status. The L-carnitine and control performance dogs were put through a weekly running program consisting of running sprint type shorter runs of higher intensity twice weekly (1200 yds/session increasing to 2400 yds/session over 10 wk period) and running endurance longer runs one time per wk (increasing from 5 miles/session to 10 miles per session over a 10 wk period). Each performance dog also wore the Actical activity monitor during the last endurance run. The dogs were put through a 15 mile run that included mud, water, tall grass, and swimming. The dogs were timed when they completed the course. The dogs were encouraged by kennel staff that rode along in a 4 wheel all terrain type vehicle during all of the endurance runs. […] Immediately following the 15 mile endurance run, each dog was placed in a kennel and evaluated for recovery time for body temperature (every 15 minutes for 2 hr) and heart rate (every 2 minutes for 14 minutes). Twenty four hours after test dogs ran the last 15 endurance run, post-run serum samples were taken to evaluate biomarkers for muscle damage and antioxidant status. Each test dog was also scanned with the GE Prodigy DEXA to determine body composition change that occurred during the course of the 13 wk study. Body Scans: Each dog was scanned for body composition with a GE Prodigy Pro Fan beam instrument during the week prior to the beginning of the 90 day study and the first working day following the last endurance run. Body composition values were determined for % lean mass, % fat mass, and % bone ash for each dog. The difference in body composition was determined by comparing the beginning scan and last scan for each test dog. The final scans were completed 24 hr post run.

## C[N+](C)(C)C[C@H](O)CC(=O)[O-] [L-carnitine]
Ex.1, 250 mg/d, DEXA, initial vs final, either group
  Lean mass over the study: No increase in lean mass
Ex.1, 250 mg/d, females, beginning to end of study, vs 8.9% control females (p=0.22)
  Increase in % fat mass: 4.2%
Ex.1, 250 mg/d, females, over 90 day study, unpaired t-test (Table 20), vs 9% control females (p=0.30)
  Increase in fat: 5.8%
Ex.1, 250 mg/d, females, vs 11.1 lbs control (p=0.29)
  Fat mass at the end of the study: 8.9 lbs
F, Final
  BMC Least Sq Mean: 820.2 g
  Fat Least Sq Mean: 8.892 lbs
  Fat Percentage Least Sq Mean: 16.32
  Lean Mass Least Sq Mean: 45.62 lbs
  Total Mass Least Sq Mean: 54.51 lbs
F, Initial
  BMC Least Sq Mean: 766.5 g
  Fat Least Sq Mean: 5.631 lbs
  Fat Percentage Least Sq Mean: 11.03
  Lean Mass Least Sq Mean: 45.83 lbs
  Total Mass Least Sq Mean: 51.14 lbs
Final
  BMC Least Sq Mean: 861.6 g
  Fat Least Sq Mean: 8.558 lbs
  Fat Percentage Least Sq Mean: 14.52
  Lean Mass Least Sq Mean: 49.83 lbs
  Total Mass Least Sq Mean: 58.39 lbs
Initial
  BMC Least Sq Mean: 784.2 g
  Fat Least Sq Mean: 5.779 lbs
  Fat Percentage Least Sq Mean: 10.31
  Lean Mass Least Sq Mean: 49.87 lbs
  Total Mass Least Sq Mean: 55.49 lbs
M, Final
  BMC Least Sq Mean: 903 g
  Fat Least Sq Mean: 8.225 lbs
  Fat Percentage Least Sq Mean: 12.73
  Lean Mass Least Sq Mean: 54.04 lbs
  Total Mass Least Sq Mean: 62.27 lbs
M, Initial
  BMC Least Sq Mean: 801.8 g
  Fat Least Sq Mean: 5.927 lbs
  Fat Percentage Least Sq Mean: 9.582
  Lean Mass Least Sq Mean: 53.9 lbs
  Total Mass Least Sq Mean: 59.83 lbs
Sex F, Final
  % Fat, Mean: 16.3%
  BMC, Mean: 820 g
  Lean Mass, Mean: 45.6 lb
  Total Mass, Mean: 54.5 lb
Sex F, Initial
  % Fat, Mean: 12.1%
  BMC, Mean: 764 g
  Lean Mass, Mean: 44.7 lb
  Total Mass, Mean: 50.8 lb
Sex M, Final
  % Fat, Mean: 12.7%
  BMC, Mean: 903 g
  Lean Mass, Mean: 54.0 lb
  Total Mass, Mean: 62.3 lb
Sex M, Initial
  % Fat, Mean: 9.6%
  BMC, Mean: 802 g
  Lean Mass, Mean: 53.9 lb
  Total Mass, Mean: 59.8 lb
All dogs, Final
  % Fat, Mean: 14.3%
  BMC, Mean: 866 g
  Lean Mass, Mean: 50.3 lb
  Total Mass, Mean: 58.8 lb
All dogs, Initial
  % Fat, Mean: 10.6%
  BMC, Mean: 787 g
  Lean Mass, Mean: 50.3 lb
  Total Mass, Mean: 56.3 lb
All dogs
  BMC-Change: 82 ± 46 n = 20 g
  Lean Mass-Change: 0.1 ± 0.3 n = 20 lb
  Total Mass-Change: 3.4 ± 0.8 n = 20 lb
  BMC-Final: 866 ± 26 n = 20 g
  BMC-Initial: 784 ± 44 n = 20 g
  Lean Mass-Final: 50.3 ± 1.5 n = 20 lb
  Lean Mass-Initial: 50.2 ± 1.5 n = 20 lb
  Total Mass-Final: 58.8 ± 1.7 n = 20 lb
  Total Mass-Initial: 55.3 ± 1.7 n = 20 lb
♀
  BMC-Change: 58 ± 11 n = 9 g
  Lean Mass-Change: 0 ± 0.5 n = 9 lb
  Total Mass-Change: 4.7 ± 1.5 n = 9 lb
  BMC-Final: 820 ± 19 n = 9 g
  BMC-Initial: 762 ± 18 n = 9 g
  Lean Mass-Final: 45.6 ± 1.7 n = 9 lb
  Lean Mass-Initial: 45.7 ± 1.3 n = 9 lb
  Total Mass-Final: 54.5 ± 1.4 n = 9 lb
  Total Mass-Initial: 49.8 ± 1.1 n = 9 lb
♂
  BMC-Change: 101 ± 84 n = 11 g
  Lean Mass-Change: 0.1 ± 0.5 n = 11 lb
  Total Mass-Change: 2.4 ± 0.6 n = 11 lb
  BMC-Final: 903 ± 42 n = 11 g
  BMC-Initial: 802 ± 80 n = 11 g
  Lean Mass-Final: 54 ± 1.7 n = 11 lb
  Lean Mass-Initial: 53.9 ± 1.8 n = 11 lb
  Total Mass-Final: 62.3 ± 2.6 n = 11 lb
  Total Mass-Initial: 59.8 ± 2.2 n = 11 lb
Treatment * Sex, F
  BMC Least Sq Mean: 766.5 g
  Fat Least Sq Mean: 7.261 lbs
  Fat Percentage Least Sq Mean: 11.03
  Lean Mass Least Sq Mean: 45.83 lbs
  Total Mass Least Sq Mean: 51.14 lbs
Treatment * Sex, M
  BMC Least Sq Mean: 801.8 g
  Fat Least Sq Mean: 7.076 lbs
  Fat Percentage Least Sq Mean: 9.582
  Lean Mass Least Sq Mean: 53.9 lbs
  Total Mass Least Sq Mean: 59.83 lbs
Treatment level, all dogs
  BMC Least Sq Mean: 784.2 g
  Fat Least Sq Mean: 7.169 lbs
  Fat Percentage Least Sq Mean: 10.31
  Lean Mass Least Sq Mean: 49.87 lbs
  Total Mass Least Sq Mean: 55.49 lb
Model term
  Body mineral content (BMC), mixed model Estimate, term Treatment[L-carnitine]: −22.85
  Body mineral content (BMC), mixed model Estimate, term Treatment[L-carnitine] * Sex[F]: 37.64
  Body mineral content (BMC), mixed model Estimate, term Treatment[L-carnitine] * Sex[F] * Time[Final-Initial]: −17.19
  Body mineral content (BMC), mixed model Estimate, term Treatment[L-carnitine] * Time[Final-Initial]: 6.762
  Fat mass, mixed model Estimate, term Treatment[L-carnitine]: −0.2546
  Fat mass, mixed model Estimate, term Treatment[L-carnitine] * Sex[F]: −0.1764
  Fat mass, mixed model Estimate, term Treatment[L-carnitine] * Sex[F] * Time[Initial]: 0.331
  Fat mass, mixed model Estimate, term Treatment[L-carnitine] * Time[Initial]: 0.3408
  Fat percentage, mixed model Estimate, term Treatment[L-carnitine]: 0.1573
  Fat percentage, mixed model Estimate, term Treatment[L-carnitine] * Sex[F]: 0.281
  Fat percentage, mixed model Estimate, term Treatment[L-carnitine] * Sex[F] * Time[Final-Initial]: −0.9515
  Fat percentage, mixed model Estimate, term Treatment[L-carnitine] * Time[Final-Initial]: −0.8868
  Lean mass, mixed model Estimate, term Treatment[L-carnitine]: −0.3966
  Lean mass, mixed model Estimate, term Treatment[L-carnitine] * Sex[F]: 0.618
  Lean mass, mixed model Estimate, term Treatment[L-carnitine] * Sex[F] * Time[Final-Initial]: 0.1808
  Lean mass, mixed model Estimate, term Treatment[L-carnitine] * Time[Final-Initial]: −0.234
  Total Body Mass, mixed model Estimate, term Treatment[L-carnitine]: −0.3536
  Total Body Mass, mixed model Estimate, term Treatment[L-carnitine] * Sex[F]: 0.6569
  Total Body Mass, mixed model Estimate, term Treatment[L-carnitine] * Sex[F] * Time[Final-Initial]: −0.3655
  Total Body Mass, mixed model Estimate, term Treatment[L-carnitine] * Time[Final-Initial]: −0.8724
